Here are results for 4 compounds from US9518038B2, “Condensation product of theanine derivative and carboxylic acid coumarin derivative, its intermediate, preparation method and use thereof” (SHANDONG YINGDONG YINGHAO BIOTECHNOLOGY, INC., priority 2012, dated 2016).

Read-outs that look alike come from different tables or passages of the source.

Assay [1] relates to human gastric cancer cells BGC-823. As to the kind of experiment: MTT growth inhibition, BGC-823 cells. The assay is classed as cell-based. Particulars: 72 h after treatment, read-out: Drug concentration (IC50) at which 50% cancer cells survived. An excerpt: (§1) Cell lines and cell culture: human lung cancer cells A549 and H460, human breast cancer cells MCF-7 and MDA-MB-231, human gastric cancer cells BGC-823, human prostate cancer cells PC-3, human chronic leukemia cells K562, human lymphoma cells U937, human liver cancer cells SMMC7721 and HepG2, human colon cancer cells HT29, human pancreatic cancer cells PANC-1 and BxPC3, human cervical cancer Hela cell lines, human brain tumor cells Daoy, human neuroma cells D54 and human oral epidermoid cancer cells KBV200 line with strong drug resistance, mouse melanoma cells B16, and highly metastatic Lewis lung cancer cell lines were purchased from American Type Culture Collection of the U.S. These cells were cultured with DMEM and RPMI-1640 culture solutions separately.
(§2) The procedure was as follows:
(§3) (1) 0.25% trypsin was used to digest cancer cells in a logarithmic growth phase to prepare a single-cell suspension, the concentration of cells was adjusted to 5×10^4/mL, and the adjusted suspension was inoculated into a 96-well culture plate with 100 μl per well;
(§4) (2) The culture plate was transferred into a 37° C. incubator with a saturated humidity and 5% of CO2 and cultured for 24 h; the compounds and the intermediates thereof obtained in embodiments 1-7 and the compound as represented by formula (IIIa) or the positive control anti-cancer drug with the concentration of 1-1000 μM/L were added to enable the final concentration to be 0.1-1500 μM/L. Control wells (only added with 200 μl of cell suspension) and drug-free blank control wells (containing the solvent of 0.01% DMSO) were set, each group included 8 wells, and the plate was placed into the 37° C. incubator with saturated humidity and 5% of CO2 for culturing;
(§5) (3) The 96-well plate was taken out at 48 h and 72 h after dosing, the original culture medium was carefully removed by suction, 100 μl of serum-free DMEM culture medium and 10 μl of MTT (5 mg/mL) solution were added in each well. The plate was continuously cultured for another 4 h and then the culture was terminated;
(§6) (4) The supernatant in the wells was carefully removed by suction, each well was added with 150 μl of DMSO and shaked at room temperature for 10-15 min to fully dissolve crystals.
(§7) (5) Colorimetric analysis: the wavelength was selected as 570 nm, the light absorbance (A value) of each well was determined on the microplate reader and the results were recorded; the experiment was repeated for three times;
(§8) (6) the experimental results were calculated according to the following formula: relative survival rate=(A value of each experimental group/A value of cell control group)×100%
(§9) Calculation of median-effect concentration (IC50, namely the drug concentration at which the inhibition rate is 50%, also known as half inhibitory concentration):
(§10) IC50 of the detected component was calculated by using a regression equation.

The test system of assay [2] is highly metastatic Lewis lung cancer cell lines. As to the kind of experiment: MTT growth inhibition, LLC cells. The assay is classed as cell-based, mouse. Particulars: 72 h after treatment, read-out: Drug concentration (IC50) at which 50% cancer cells survived.
Source text: as §1, §2, §3, §4, §5, §6, §7, §8, §9, §10

For assay [3], the system named is human pancreatic cancer cells BxPC3. Nature of the assay: MTT growth inhibition, BxPc3 cells. The assay is classed as cell-based. To be noted: read-out: Drug concentration (IC50) at which 50% cancer cells survived.
Source text: as §1, §2, §3, §4, §5, §6, §7, §8, §9, §10

The subject of assay [4] is human pancreatic cancer cells PANC-1. Nature of the assay: MTT growth inhibition, PANC-1 cells. Particulars: 72 h after treatment, read-out: Drug concentration (IC50) at which 50% cancer cells survived. The assay is classed as cell-based.
Source text: as §1, §2, §3, §4, §5, §6, §7, §8, §9, §10

In another assay the test system is mouse melanoma cells B16. As to the kind of experiment: MTT growth inhibition, B16 cells. Format: cell-based. Particulars: Mus musculus, 72 h after treatment, read-out: Drug concentration (IC50) at which 50% cancer cells survived.
Source text: as §1, §2, §3, §4, §5, §6, §7, §8, §9, §10

Assay [5] deals with human lymphoma cells U937. Nature of the assay: MTT growth inhibition, U937 cells. To be noted: Homo sapiens, U-937, 72 h after treatment, read-out: Drug concentration (IC50) at which 50% cancer cells survived. The assay is classed as cell-based. How it is done: as §2, §5, §6, §7, §8, §10
Assay [6] relates to human lung cancer cells A549. As to the kind of experiment: MTT growth inhibition, A549 cells. To be noted: 72 h after treatment, read-out: Drug concentration (IC50) at which 50% cancer cells survived. The assay is classed as cell-based.
Source text: as §1, §2, §3, §4, §5, §6, §7, §8, §9, §10

Assay [7] has as its system Caski human cervical cancer cells. As to the kind of experiment: MTT growth inhibition, Caski cells. Format: cell-based. Particulars: Ca-Ski, 72 h after treatment, read-out: Drug concentration (IC50) at which 50% cancer cells survived.
Assay [8] deals with human cervical cancer Hela cell lines. Nature of the assay: MTT growth inhibition, Hela cells. Format: cell-based. To be noted: Homo sapiens, 72 h after treatment, read-out: Drug concentration (IC50) at which 50% cancer cells survived.
Source text: as §1, §2, §3, §4, §5, §6, §7, §8, §9, §10

In assay [9] the test system is human chronic leukemia cells K562. As to the kind of experiment: MTT growth inhibition, K562 cells. Format: cell-based. To be noted: 72 h after treatment, read-out: Drug concentration (IC50) at which 50% cancer cells survived.
Source text: as §1, §2, §3, §4, §5, §6, §7, §8, §9, §10

In a further assay the test system is human neuroma cells D54. As to the kind of experiment: MTT growth inhibition, D54 cells. To be noted: Homo sapiens, 72 h after treatment, read-out: Drug concentration (IC50) at which 50% cancer cells survived. Format: cell-based.
Source text: as §1, §2, §3, §4, §5, §6, §7, §8, §9, §10

For assay [10], the system named is human colon cancer cells HT29. As to the kind of experiment: MTT growth inhibition, HT29 cells. The assay is classed as cell-based. Particulars: HT-29, 72 h after treatment, read-out: Drug concentration (IC50) at which 50% cancer cells survived.
Source text: as §1, §2, §3, §4, §5, §6, §7, §8, §9, §10

The test system of assay [11] is human prostate cancer cells PC-3. As to the kind of experiment: MTT growth inhibition, PC-3 cells. The assay is classed as cell-based. Particulars: 72 h after treatment, read-out: Drug concentration (IC50) at which 50% cancer cells survived.
Source text: as §1, §2, §3, §4, §5, §6, §7, §8, §9, §10

In assay [12] the test system is human breast cancer cells MDA-MB-231. Nature of the assay: MTT growth inhibition, MDA-MB-231 cells. Format: cell-based. Particulars: 72 h after treatment, read-out: Drug concentration (IC50) at which 50% cancer cells survived.
Source text: as §1, §2, §3, §4, §5, §6, §7, §8, §9, §10

Assay [13] deals with human breast cancer cells MCF-7. As to the kind of experiment: MTT growth inhibition, MCF-7 cells. Format: cell-based. To be noted: MCF7, 72 h after treatment, read-out: Drug concentration (IC50) at which 50% cancer cells survived.
Source text: as §1, §2, §3, §4, §5, §6, §7, §8, §9, §10

Assay [14] has as its system human liver cancer cells HepG2. Nature of the assay: MTT growth inhibition, HepG2 cells. Format: cell-based. To be noted: 72 h after treatment, read-out: Drug concentration (IC50) at which 50% cancer cells survived.
Source text: as §1, §2, §3, §4, §5, §6, §7, §8, §9, §10

The subject of assay [15] is human brain tumor cells Daoy. As to the kind of experiment: MTT growth inhibition, Daoy cells. The assay is classed as cell-based. To be noted: Homo sapiens, 72 h after treatment, read-out: Drug concentration (IC50) at which 50% cancer cells survived.
Source text: as §1, §2, §3, §4, §5, §6, §7, §8, §9, §10

Assay [16] relates to human lung cancer cells H460. As to the kind of experiment: MTT growth inhibition, H460 cells. Format: cell-based. To be noted: NCI-H460, 72 h after treatment, read-out: Drug concentration (IC50) at which 50% cancer cells survived.
Source text: as §1, §2, §3, §4, §5, §6, §7, §8, §9, §10

Assay [17] relates to human oral epidermoid cancer cells KBV200. As to the kind of experiment: MTT growth inhibition, KBV200 cells. Particulars: 72 h after treatment, read-out: Drug concentration (IC50) at which 50% cancer cells survived. Format: cell-based.
Source text: as §1, §2, §3, §4, §5, §6, §7, §8, §9, §10

Assay [18] has as its system human liver cancer cells SMMC7721. As to the kind of experiment: MTT growth inhibition, SMMC7721 cells. The assay is classed as cell-based. Particulars: SMMC-7721, S-7721 (SMMC7721), 72 h after treatment, read-out: Drug concentration (IC50) at which 50% cancer cells survived.
Source text: as §1, §2, §3, §4, §5, §6, §7, §8, §9, §10

The mark [19] stands for this setting: Mus musculus, Lewis lung carcinoma.
[20] abbreviates: Homo sapiens, BXPC-3, 72 h after treatment.

Regarding `O=c1c(-c2ccc(O)cc2)coc2cc(O)cc(O)c12` [Genistein, reference compound], in assay [1], the IC50 came to 135 µM.

For the compound `O=C1OC(=O)[C@H]2[C@@H]1[C@@H]1CC[C@H]2O1` [Norcantharidin, reference compound], the IC50 was 15 µM in [2] and 60 µM in [3] (72 h after treatment).

Regarding `O=C(O)c1cc2cc([N+](=O)[O-])ccc2oc1=O` [Compound IIIf, 6-nitrocoumarin-3-carboxylic acid], the IC50 in assay [4] worked out at 430 µM; in the assay with mouse melanoma cells B16, 670 µM; in assay [5], 450 µM; in assay [6] it was 580 µM; in assay [7], 300 µM; in [8], 580 µM. Besides, the IC50 in [1] is 650 µM; in assay [9], 300 µM; with human neuroma cells D54, 300 µM; in [10], 460 µM; in assay [11], 530 µM; in assay [12], 470 µM. The IC50 in assay [13] worked out at 400 µM; in assay [14] it was 360 µM; in [2] (setting [19]) it was 370 µM; in assay [15] it was 400 µM; in assay [3] (setting [20]), 114 µM; in assay [16], 460 µM. The figures for the IC50 in assay [17] and in assay [18] were 300 µM and 460 µM, respectively.

`O=C(O)c1cc2ccccc2oc1=O` [Compound IIIa]: the IC50 (in assay [4]; in the assay on mouse melanoma cells B16; in assay [5]; in assay [6]; in [7]; in assay [8]) was above 700 µM throughout. Besides, the IC50 in assay [1] was above 700 µM; in assay [9], above 700 µM; in the assay on human neuroma cells D54 it was above 700 µM; in assay [10], above 700 µM; in assay [11], above 500 µM; in assay [12], above 700 µM. In addition, the IC50 in assay [13], in [14], in assay [2] (setting [19]), in [15], in assay [3] (setting [20]) and in assay [16] was above 700 µM in each case. For the same compound, the IC50 is above 700 µM in assay [17] and above 500 µM in [18].
